This is an account of results in patent US10370425B2, “Peptide antagonists of the calcitonin CGRP family of peptide hormones and their use” (priority 2012, dated 2019).

Read-outs that look alike come from different tables or passages of the source. Positions of bridges follow the written chain, without caps; N, C: chain ends. Residues, ends and D or L forms follow the SMILES beside them. No end group written: not given here.

A word on the IC50: it is the concentration needed to halve the response being measured.

The assay has as its target T1, amylin receptor, AMY1, a CT (calcitonin) receptor/RAMP1 (receptor-activity modifying protein) complex (Homo sapiens, UniProt O60894+P30988).
T1 construct: host or cells: CHO-K1/AMY1/Gα15
In words: Calcium flux assay (FLIPR Calcium 4) of inhibition of α-CGRP stimulation in CHO-K1/AMY1/Gα15 cells. Format: cell-based. As to conditions: for inhibition at 1 µM: at maximal test concentration (series starts with 1 μM), CHO-K1/AMY1/Gα15 cells stimulated with 32 nM (EC80) α-CGRP, n = 2, read-out: % Inhibition @ Maximal concentration (Mean +/− SD, n = 2). Here is the method: Using a calcium flux assay, the dose-dependent inhibitory response of peptide antagonists of the present invention on an amylin receptor, AMY1, a CT (calcitonin) receptor/RAMP1 (receptor-activity modifying protein) complex was determined. The recombinant cell line CHO-K1/AMY1/Gα15 (GenScript, Piscataway, N.J., Catalog No. M00475) was employed in the assay. Peptide antagonist activities were tested, in duplicate, at five different concentrations, starting with 1 μM and serially diluted five-fold, in DMSO. AC187 (SEQ ID NO: 55), a known amylin receptor antagonist (available for example from Tocris Bioscience, Minneapolis, Minn., Catalog No. 3419) was used as a positive control in the assays, and human α-CGRP, a known amylin receptor agonist (SEQ ID NO:56) , (available for example from Tocris Bioscience, Minneapolis, Minn., Catalog No. 3012) was used as a positive control in the assays. The FLIPR® Calcium 4 Assay Kit (Molecular Devices, Sunnyvale, Calif.) was used.
Human α-CGRP having the amino acid sequence, NH2-[…]-NH2 (SEQ ID NO:56) and AC187 having the sequence […] (SEQ ID NO: 55) were employed as negative and positive controls, respectively. Stock solutions were further diluted in HBSS-HEPES buffer to make 5×final control solutions.
CHO-K1/AMY1/Gα15 cells were seeded in a 384-well black wall, clear bottom plate at a density of 20,000 cells/well in 20 μL of growth medium 20 hours prior to the day of the experiment and maintained at 37° C./5% CO2.
Per the assay kit protocol, dye-loading solution (at 2×final concentration) was added into the assay plate, 20 μL per well. Compound solution (at 5 ×final concentration) was added into the assay plate, 10 uL per well. The assay plate was placed into a 37° C. incubator for 1 hour, then left for 15 min at RT. The agonist plate (at 5×EC80 concentration) was placed in Source 2. The total reading time was 120 sec. The agonist was added after 20 seconds reading of the baseline and the fluorescence signal was captured for another 100 seconds (21 s to 120 s).
In screening, cells stimulated with assay buffer were chosen as the background; cells stimulated with agonist (at […] concentration) were chosen as the negative control.
Data were recorded by ScreenWorks (version 3.1) as FMD files and stored on the GenScript computer network for off-line analysis. Data acquisition and analyses was performed using ScreenWorks (version 3.1) program and exported to Excel. The average value of 20 (1 s to 20 s) seconds reading was calculated as the baseline reading and the relative fluorescent units (ΔRFU) intensity values were calculated with the maximal fluorescent units (21 s to 120 s) subtracting the average value of baseline reading.
The IC50 value of AC187 was 8 μM. The inhibitory activity of the tested peptide antagonists was normalized with the negative control (AC187) and reported as % Inhibition, calculated from the following equation: % Inhibition=(ΔRFUcompound−ΔRFUBackground)/(ΔRFUNegative control−ΔRFUBackground) * 100% Inhibition was then plotted along the Y-axis, with the test concentrations as indicated on the X-axis. The peptides were tested at indicated concentrations and stimulated with 32 nM (EC80) α-CGRP (Mean +/− SD, n=2).

T1 sequence (P30988 25-474): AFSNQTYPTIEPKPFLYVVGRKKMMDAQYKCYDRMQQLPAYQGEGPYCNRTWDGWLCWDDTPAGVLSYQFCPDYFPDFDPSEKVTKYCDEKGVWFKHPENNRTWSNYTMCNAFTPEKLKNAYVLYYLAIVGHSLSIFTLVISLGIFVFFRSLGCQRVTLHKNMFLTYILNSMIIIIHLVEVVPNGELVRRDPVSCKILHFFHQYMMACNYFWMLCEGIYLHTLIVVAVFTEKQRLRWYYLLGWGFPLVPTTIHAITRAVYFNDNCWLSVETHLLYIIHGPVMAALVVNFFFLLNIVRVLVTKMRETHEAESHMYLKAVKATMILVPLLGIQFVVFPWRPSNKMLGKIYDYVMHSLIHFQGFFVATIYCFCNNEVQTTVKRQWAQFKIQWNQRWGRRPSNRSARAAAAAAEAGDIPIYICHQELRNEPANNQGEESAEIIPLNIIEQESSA
T1 sequence (O60894 27-148): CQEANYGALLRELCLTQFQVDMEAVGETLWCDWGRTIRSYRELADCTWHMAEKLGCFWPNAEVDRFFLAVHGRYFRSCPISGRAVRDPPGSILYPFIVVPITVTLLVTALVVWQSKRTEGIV

For `CC(C)C[C@H](NC(=O)[C@H](CCCNC(=N)N)NC(=O)CNC(=O)[C@H](CC(C)C)NC(=O)[C@@H](NC(=O)[C@@H]1CSSC[C@H](NC(=O)[C@H](C)N)C(=O)N[C@@H](CC(N)=O)C(=O)N[C@@H]([C@@H](C)O)C(=O)N[C@@H](C)C(=O)N[C@@H](C)C(=O)N1)C(C)C)C(=O)N[C@@H](CO)C(=O)N[C@@H](CCC(N)=O)C(=O)N[C@@H](CCC(=O)O)C(=O)N[C@@H](CC(C)C)C(=O)N[C@@H](Cc1c[nH]cn1)C(=O)N[C@@H](CCCNC(=N)N)C(=O)N[C@@H](CC(C)C)C(=O)N[C@@H](CCC(N)=O)C(=O)N[C@H](C(=O)N[C@@H](Cc1ccc(O)cc1)C(=O)N1CCC[C@H]1C(=O)N[C@@H](CCCNC(=N)N)C(=O)N[C@H](C(=O)N[C@@H](CC(N)=O)C(=O)N[C@H](C(=O)NCC(=O)N[C@@H](CO)C(=O)N[C@@H](CCCCN)C(=O)N[C@@H](C)C(=O)N[C@@H](Cc1ccccc1)C(N)=O)C(C)C)[C@@H](C)O)[C@@H](C)O` [compound 4] (H-ACNTAACVLGRLSQELHRLQTYPRTNVGSKAF-NH2; disulfide 2-7 (inferred)), the inhibition at 1 µM worked out at 94.6%.

Take `CC(C)C[C@H](NC(=O)[C@H](CCCNC(=N)N)NC(=O)CNC(=O)[C@H](CC(C)C)NC(=O)[C@@H](NC(=O)[C@@H]1CSSC[C@H](NC(=O)[C@H](C)N)C(=O)N[C@@H](CC(N)=O)C(=O)N[C@@H](CC(C)C)C(=O)N[C@@H](CO)C(=O)N[C@@H](C)C(=O)N1)C(C)C)C(=O)N[C@@H](CO)C(=O)N[C@@H](CCC(N)=O)C(=O)N[C@@H](CCC(=O)O)C(=O)N[C@@H](CC(C)C)C(=O)N[C@@H](Cc1c[nH]cn1)C(=O)N[C@@H](CCCNC(=N)N)C(=O)N[C@@H](CC(C)C)C(=O)N[C@@H](CCC(N)=O)C(=O)N[C@H](C(=O)N[C@@H](Cc1ccc(O)cc1)C(=O)N1CCC[C@H]1C(=O)N[C@H](C(=O)N[C@@H](CC(N)=O)C(=O)N[C@H](C(=O)NCC(=O)N[C@@H](CO)C(=O)NCC(=O)N[C@H](C(=O)N1CCC[C@H]1C(N)=O)[C@@H](C)O)[C@@H](C)O)[C@@H](C)O)[C@@H](C)O` [compound 13] (H-ACNLSACVLGRLSQELHRLQTYPTNTGSGTP-NH2; disulfide 2-7 (inferred)): the inhibition at 1 µM was found to be 95.8%. Same read-out and setting: the same measure for `CC(C)C[C@H](NC(=O)[C@H](CCCNC(=N)N)NC(=O)CNC(=O)[C@H](CC(C)C)NC(=O)[C@@H](NC(=O)[C@@H]1CSSC[C@H](N)C(=O)N[C@@H](CO)C(=O)N[C@@H](CC(N)=O)C(=O)N[C@@H]([C@@H](C)O)C(=O)N[C@@H](C)C(=O)N[C@@H](C)C(=O)N1)C(C)C)C(=O)N[C@@H](CO)C(=O)N[C@@H](CCC(N)=O)C(=O)N[C@@H](CCC(=O)O)C(=O)N[C@@H](CC(C)C)C(=O)N[C@@H](Cc1c[nH]cn1)C(=O)N[C@@H](CCCNC(=N)N)C(=O)N[C@@H](CC(C)C)C(=O)N[C@@H](CCC(N)=O)C(=O)N[C@H](C(=O)N[C@@H](Cc1ccc(O)cc1)C(=O)N1CCC[C@H]1C(=O)N[C@@H](CCCNC(=N)N)C(=O)N[C@H](C(=O)N[C@@H](CC(N)=O)C(=O)N[C@H](C(=O)NCC(=O)N[C@@H](CO)C(=O)N[C@@H](CCCCN)C(=O)N[C@@H](C)C(=O)N[C@@H](Cc1ccccc1)C(N)=O)C(C)C)[C@@H](C)O)[C@@H](C)O` [compound 8] (H-CSNTAACVLGRLSQELHRLQTYPRTNVGSKAF-NH2; disulfide 1-7 (inferred)): 95.4%; for `CC[C@H](C)[C@@H]1NC(=O)[C@H](C)NC(=O)[C@H]([C@@H](C)O)NC(=O)[C@H](CC(=O)O)NC(=O)[C@@H](NC(=O)[C@H](C)N)CSSC[C@@H](C(=O)N[C@H](C(=O)N[C@@H](CC(C)C)C(=O)NCC(=O)N[C@@H](CCCNC(=N)N)C(=O)N[C@@H](CC(C)C)C(=O)N[C@@H](CO)C(=O)N[C@@H](CCC(N)=O)C(=O)N[C@@H](CCC(=O)O)C(=O)N[C@@H](CC(C)C)C(=O)N[C@@H](Cc2c[nH]cn2)C(=O)N[C@@H](CCCNC(=N)N)C(=O)N[C@@H](CC(C)C)C(=O)N[C@@H](CCC(N)=O)C(=O)N[C@H](C(=O)N[C@@H](Cc2ccc(O)cc2)C(=O)N2CCC[C@H]2C(=O)N[C@@H](CCCNC(=N)N)C(=O)N[C@H](C(=O)N[C@@H](CC(N)=O)C(=O)N[C@H](C(=O)NCC(=O)N[C@@H](CO)C(=O)N[C@@H](CCCCN)C(=O)N[C@@H](C)C(=O)N[C@@H](Cc2ccccc2)C(N)=O)C(C)C)[C@@H](C)O)[C@@H](C)O)C(C)C)NC1=O` [compound 10] (H-ACDTAICVLGRLSQELHRLQTYPRTNVGSKAF-NH2; disulfide 2-7 (inferred)): 96.8%. As to `CC(C)C[C@@H]1NC(=O)[C@H](C)NC(=O)[C@H]([C@@H](C)O)NC(=O)[C@H](CC(=O)O)NC(=O)[C@@H](NC(=O)[C@H](C)N)CSSC[C@@H](C(=O)N[C@H](C(=O)N[C@@H](CC(C)C)C(=O)NCC(=O)N[C@@H](CCCNC(=N)N)C(=O)N[C@@H](CC(C)C)C(=O)N[C@@H](CO)C(=O)N[C@@H](CCC(N)=O)C(=O)N[C@@H](CCC(=O)O)C(=O)N[C@@H](CC(C)C)C(=O)N[C@@H](Cc2c[nH]cn2)C(=O)N[C@@H](CCCNC(=N)N)C(=O)N[C@@H](CC(C)C)C(=O)N[C@@H](CCC(N)=O)C(=O)N[C@H](C(=O)N[C@@H](Cc2ccc(O)cc2)C(=O)N2CCC[C@H]2C(=O)N[C@@H](CCCNC(=N)N)C(=O)N[C@H](C(=O)N[C@@H](CC(N)=O)C(=O)N[C@H](C(=O)NCC(=O)N[C@@H](CO)C(=O)N[C@@H](CCCCN)C(=O)N[C@@H](C)C(=O)N[C@@H](Cc2ccccc2)C(N)=O)C(C)C)[C@@H](C)O)[C@@H](C)O)C(C)C)NC1=O` [compound 9] (H-ACDTALCVLGRLSQELHRLQTYPRTNVGSKAF-NH2; disulfide 2-7 (inferred)), the inhibition at 1 µM was 95.6%. Turning to `CC(C)C[C@H](NC(=O)[C@H](CCCNC(=N)N)NC(=O)CNC(=O)[C@H](CC(C)C)NC(=O)[C@@H](NC(=O)[C@@H]1CSSC[C@H](NC(=O)[C@H](C)N)C(=O)N[C@@H](CC(=O)O)C(=O)N[C@@H]([C@@H](C)O)C(=O)N[C@@H](C)C(=O)N[C@@H](C)C(=O)N1)C(C)C)C(=O)N[C@@H](CO)C(=O)N[C@@H](CCC(N)=O)C(=O)N[C@@H](CCC(=O)O)C(=O)N[C@@H](CC(C)C)C(=O)N[C@@H](Cc1c[nH]cn1)C(=O)N[C@@H](CCCNC(=N)N)C(=O)N[C@@H](CC(C)C)C(=O)N[C@@H](CCC(N)=O)C(=O)N[C@H](C(=O)N[C@@H](Cc1ccc(O)cc1)C(=O)N1CCC[C@H]1C(=O)N[C@@H](CCCNC(=N)N)C(=O)N[C@H](C(=O)N[C@@H](CC(N)=O)C(=O)N[C@H](C(=O)NCC(=O)N[C@@H](CO)C(=O)N[C@@H](CCCCN)C(=O)N[C@@H](C)C(=O)N[C@@H](Cc1ccccc1)C(N)=O)C(C)C)[C@@H](C)O)[C@@H](C)O` [compound 1] (H-ACDTAACVLGRLSQELHRLQTYPRTNVGSKAF-NH2; disulfide 2-7 (inferred)), the inhibition at 1 µM is 94.4%. Regarding “VLGKLSQELHKLQTYPRTNTGSNTY [AC187, reference compound]”, the IC50 was 8000 nM (CHO-K1/AMY1/Gα15 calcium flux, read-out: IC50 value) and 8150 nM (positive control, CHO-K1/AMY1/Gα15 cells stimulated with α-CGRP, read-out: IC50 nM (assay positive control)).
